In one series the test system is mice (129Sv background). As to the kind of experiment: mice, 48 hrs fasting / 48 hrs refeeding fat free diet. The format is in vivo. The method, then: The drug-like chemical structure of fatostatin A prompted the inventors to investigate its ability to inhibit SREBP-1 in the liver of whole animals. The effect of fatostatin A on hepatic SREBP-1 under lipogenic conditions of prolonged fasting (48 hours) followed by feeding fat free high carbohydrate diet for another 48 hours was examined. Mice were intraperitoneally injected with fatostatin A at 30 mg/kg/day for 5 days starting one day prior to the 48-hour fasting period. After 48 hours of fasting, the treated group lost more weight than the control group did (6.12±0.6 compared to 4.9±0.3 gram/mouse; p=0.01.) (FIG. 6A).
The expression levels of SREBP-1 in the liver extracts were examined by western blots. […] The hepatic expression of fatty acid synthase (FAS), a representative of SREBP-1-responsive lipogenic enzymes (Boizard et al., 1998), was also determined after the treatment. […] The activity of acetyl-CoA carboxylase (ACC) (FIG. 6F), which is also regulated by SREBP-1, decreased in liver extracts as observed for FAS (FIG. 6G).
Male mice (129Sv background) were housed under controlled conditions (12-hr light/dark cycle; 25° C.) in the Animal Care Center at Baylor College of Medicine and had ad libitum access to standard laboratory chow (Purina Mills) and water. Fatostatin A was administered intraperitoneally (30 mg/kg; 150 μL) to 5-6 month old male mice (129Sv background) using two different protocols. First protocol involves fasting the mice for 48 hrs, followed by refeeding fat free diet for another 48 hrs. This treatment induces both activities and levels of lipogenic enzymes such as ACC and FAS in addition to SREBPs. The administration of fatostatin A or 10% DMSO in PBS to control groups (n=5) started 24 hrs before the fasting and continued daily until the end of the experiment.
In the second protocol, two groups of male mice (n=5) were treated daily for two weeks with either 30 mg/kg fatostatin A or 10% DMSO in PBS. Food intake and body weight were measured daily. At the end of the experiments, the mice were briefly fasted for 4-5 hrs, and their blood was withdrawn for determination of serum constituents. The mice were then sacrificed, and their livers were quickly removed and ground to powder in liquid nitrogen. The powdered tissues were suspended in 10 ml of PBS containing 0.1 mM PMSF, 5 mM benzamidine, and 5 mg/mL protease inhibitor cocktail (Roche), homogenized using Polytron (3×30 Sec, at a high speed), and sonicated briefly to degrade DNA. The extracts were clarified by centrifugation at 16,000×g for 20 min. The samples were then subjected to western blot analysis using commercially available antibodies against FAS and SREBP-1. FAS and ACC activities were determined as described earlier (Mao et al., 2006).

The subject of a further series is MOLT-4 cells. The series is described as follows: MOLT-4 cell growth, MTT assay. The format is cell-based, human. Particulars: 48 hours. The method, then: 10,000 MOLT-4 cells (FIGS. 35A-35C) and 20,000 RPM18226 cells (FIGS. 35D-35F) were seeded onto 96 well plate in RPMI 1640 medium containing 5% FBS or fat-free charcoal treated serum (FF-FBS) for 24 hours at 37 C. MOLT-4 and RPM18226 cells were treated for additional 48 hours with different concentrations of compound 19 (None control without DMSO, Vehicle with DMSO, 1, 2, 5, 10 and 20 μM in DMSO; RPM18226 cells also were treated with 3 μM in DMSO). At the end of 48 hours cells were subjected to MTT assay to determine viability. Values are depicted as means±SD; *P<0.05.
20,000 MOLT-4 cells (FIGS. 36A-36C) and 20,000 RPM18226 cells (FIGS. 36D-36F) cells were seeded onto 96 well plates in RPMI 1640 Medium containing 5% Fetal bovine serum (FBS) or 5% fat free charcoal treated serum (FF-FBS) for 24 hours at 37 C. Cells then were treated for additional 48 hours with different concentrations of compound 17 (None control without DMSO, Vehicle with DMSO, 1, 2, 3, 5, 10 and 20 μM in DMSO). At the end of the 48 hours treatment cells were subjected to MTT assay to determine viability. Values are depicted as means±SD (n=3); **P<0.001; ***P<0.0001.
MOLT-4 cells were grown at two different conditions under 5% fetal bovine serum (FBS) and under 5% FBS fat free serum (charcoal treated serum). 10,000 Cells were seeded a 96 well plate for 24 hours before starting the treatment with different concentrations of compound 19. Compound 19 dissolved in DMSO was added to cells for 48 hours before determining cell growth using MTT assay. […] Compound 19 inhibited cell growth about 75-80% at 10 and 20 μM under both growth conditions.
MOLT-4 cells were grown at two different conditions under 5% fetal bovine serum (FBS) and under 5% FBS fat free serum (charcoal treated serum). 20,000 cells were seeded into a 96 well plate for 24 hours before starting the treatment with different concentrations of compound 17. Compound 17 dissolved in DMSO was added to cells for 48 hours before determining cell growth using MTT assay. […] Compound 17 inhibited cell growth about 85-100% at 5, 10 and 20 μM under both growth conditions. Under both 5% FBS and 5% FBS fat free sera there was a strong trend of inhibition starting at 1 μM (FIGS. 36B-36C).

On to `CCCc1cc(-c2nc(-c3ccc(C)cc3)cs2)ccn1` [Compound 1, 2-propyl-4-(4-p-tolylthiazol-2-yl)pyridine], for which the “decrease of FAS expression level in liver extracts (western blot)” value in the series with mice (129Sv background) (30 mg/kg/day ip) was “up to 30%”. The “food intake and toxicity during the treatment” value in the series on mice (129Sv background) (30 mg/kg/day ip for 5 days) is listed as “No reduction of food intake or obvious toxicity”. Besides, the “weight lost after 48 hours of fasting” value with mice (129Sv background) (30 mg/kg/day ip, control 4.9±0.3) amounted to 6.12±0.6 gram/mouse. Also, the serum glucose in the series on mice (129Sv background) (after 48 hours of refeeding fat free high carbohydrate diet, control 137±14) amounted to 110 ± 23 mg/dL. The “serum LDL” value in the series with mice (129Sv background) (after 48 hours of refeeding, control 30±6) was 16 ± 5 mg/dL. Also, in the series on mice (129Sv background) (after 48 hours of refeeding, control 120±19), the serum cholesterol stood at 93 ± 20 mg/dL.
Turning to `CCCc1cc(-c2nc(-c3ccc(NS(C)(=O)=O)cc3)cs2)ccn1` [Compound 19, N-(4-(2-(2-propylpyridin-4-yl)thiazol-4-yl)phenyl)methanesulfonamide], in the series on MOLT-4 cells (2 and 5 μM, FBS fat free serum), the growth inhibition is 30-50%. Also, in the series with MOLT-4 cells (10 and 20 μM, 5% FBS and 5% FBS fat free), the “inhibition of cell growth” value is 75-80%.
